Several values for one entry are separate records, joined by “and”; a condition that tells them apart may be missing. Equal entries are not always repeated. Where two headings read alike, the source gives them in different places.
Legend:
[1] = target: T1, Mushroom tyrosinase (mTyr) (Agaricus bisporus, UniProt C7FF04); test: HPLC analysis of oxidation of L-DOPA catalyzed by mTyr; assay type: biochemical; details: 2 μg·mL^−1 inhibitor, 0.5 mM L-DOPA, 31.25 U·mL^−1 mTyr, 30 °C, 0-30 min
T1 construct: purchased Sigma-Aldrich
T1 sequence (C7FF04 1-392): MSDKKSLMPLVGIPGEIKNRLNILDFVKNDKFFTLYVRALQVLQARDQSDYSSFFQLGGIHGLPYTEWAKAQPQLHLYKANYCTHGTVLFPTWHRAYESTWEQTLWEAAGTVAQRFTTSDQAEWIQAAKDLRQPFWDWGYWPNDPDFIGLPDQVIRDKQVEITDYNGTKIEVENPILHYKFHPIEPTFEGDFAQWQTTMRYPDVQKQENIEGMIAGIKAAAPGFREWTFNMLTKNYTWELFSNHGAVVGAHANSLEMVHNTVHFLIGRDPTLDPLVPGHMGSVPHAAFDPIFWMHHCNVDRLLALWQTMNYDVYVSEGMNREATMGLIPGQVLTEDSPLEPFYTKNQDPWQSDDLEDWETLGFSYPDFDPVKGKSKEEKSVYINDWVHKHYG
Description: The inhibitory effect of 6′-O-caffeoylarbutin on the oxidation of L-DOPA catalyzed by mTyr was studied using Agilent 1200 series HPLC analysis (Palo Alto, CA, USA), with minor modifications to the previous procedure. The experiment was conducted with 0.5 mM L-DOPA as a diphenolase substrate for 31.25 U·mL^−1 mTyr in the absence of an inhibitor. Subsequently, 2 μg·mL^−1 of 6′-O-caffeoylarbutin was added, and the reaction mixture was incubated for 0, 15, and 30 min at 30 °C. Samples (10 μL) were injected after filtration onto the HPLC system equipped with a Capcell pak C18 column (250 × 4.6 mm, 5 μm, Shiseido, Tokyo, Japan) operating at a flow rate of 1.0 mL·min^−1. The column temperature maintained at 30 °C and the detection wavelength was set at 280 nm. The mobile phase was consisted of water (A) and methanol (B), and a gradient elution employed with the following linear gradient for solvent B: 5% (0 min), 20% (10 min), 50% (20 min), 80% (25 min), and 100% (35 min).

[2] = tested on: human immortalized keratinocyte (HaCaT) non-tumor cells; test: CCK-8 cell proliferation and cytotoxicity assay, HaCaT; assay type: cell-based
Description: I. Cell lines and cell culture. Human melanoma A375 tumor cells and human immortalized keratinocyte (HaCaT) non-tumor cells were obtained from Nanjing Pusheng Biomedical Technology Co., Ltd. (Nanjing, China). The cells (A375/HaCaT) were cultured in Dulbecco’s modified Eagle’s medium (DMEM, Gibco, New York, NY, USA) supplemented with 10% (v/v) fetal bovine serum (FBS, Gibco, New York, NY, USA), and incubated at 37 °C with 5% CO2 in a humidified incubator.
II. Cell viability assay. Cell proliferation and cytotoxicity assays were conducted using the Cell counting kit-8 (CCK-8) on A375 and HaCaT cells. Briefly, the cells were initially seeded in 96-well plates at a density of 4 × 10^4 cells per well and incubated for 24 h at 37 °C with 5% CO2 in a humidified incubator. Each treatment was performed in six duplicate wells. The tested compounds were added at various concentrations, and the cells were then incubated for 72 h. Following the incubation period, CCK-8 solution (Dojindo Laboratories, Kumamoto, Japan) was added to each well, and the plates were further incubated for 2 h. The absorbance of each well at 450 nm was measured using an absorbance microplate reader (BioTek ELx800, Winooski, VT, USA). The assay included negative controls in which cells were treated with ultrapure water and positive controls in which cells were treated with 10 µg·mL^−1 taxol. The percentage of cell growth inhibition was calculated using the following Equation (3). (3) Cell growth inhibition rate [%]=B1−B2/B1−B3×100 where B1 represents the absorbance of a mixture containing cells, medium, and CCK-8 solution, B2 represents the absorbance of a mixture containing cells, medium, CCK-8 solution, and the test compound; and B3 represents a mixture containing medium and CCK-8 solution.

[3] = tested on: ICR mice; test: Acute oral toxicity, 14 days; assay type: in vivo; details: for Death rate / Death toll (♀/♂): 20 mice; for Toxic Symptoms (♀/♂) Perianal Uncleanliness / Toxic Symptoms (♀/♂) Prone State / Toxic Symptoms (♀/♂) Reduced Activities / Toxic Symptoms (♀/♂) Shortness of Breath: n = 20 mice
Description: I. Animals. […] Male and female mice were raised separately in sterile PC transparent cages in the room with a 12 h light-dark cycle. The animal procedures followed the guidelines of the National Institute of Health Guide for the Care and Use of Laboratory Animals and were approved by the Institutional Animal Care and Use Committee (IACUC) of Yunnan Institute of Materia Medica.
II. Acute oral_toxicity. […] In this experiment, a 5% sodium carboxymethyl cellulose solution (5% CMC-Na) was chosen as the Vehicle and the solvent for 6′-O-caffeoylarbutin. […] Each mouse in the Vehicle group received an administration of 40 mL∙kg-1 of 5% CMC-Na. The treatment groups were orally administrated 6′-O-caffeoylarbutin twice within a 24_h period, with an interval of approximately 3.5–4.0 h, by dissolving in 5% CMC-Na at three different concentrations. Following administration, all animals in each group were closely monitored for about 2–5 h to observe any physical changes, monitor body weight, and record the death rate. The surviving mice were observed and monitored for an additional 14 days, with their body weight recorded on the 1st, 3rd, 7th, and 14th days. Animals that died during the experimental period or those that survived until the conclusion of the toxicity test were subjected to necropsy, and their organs were histopathologically observed and analyzed. All studies were conducted in accordance with the requirements of Good Laboratory Practice.

[4] = target: T1, Mushroom tyrosinase (mTyr); details: substrate L-tyrosine; previous experiments; Liu et al., 2023; read-out: IC50, monophenolase activity of mTyr; cited from earlier work
[5] = target: T1, Mushroom tyrosinase (mTyr); details: substrate L-DOPA; previous experiments; Liu et al., 2023; read-out: IC50, diphenolase activity of mTyr; cited from earlier work

In the case of `O=C(C=Cc1ccc(O)c(O)c1)OCC1OC(Oc2ccc(O)cc2)C(O)C(O)C1O` (centres unmarked) [6′-O-caffeoylarbutin], the “oxidation products of L-DOPA (HPLC)” value [1] is reported as “significantly decrease”, the inhibition rate ([2]; 3.125–100 μg∙mL^−1, 72 h) is reported as “below 3%” and the inhibition at 200 µg/mL ([2]; Homo sapiens, 200 μg∙mL^−1, 72 h, read-out: inhibition rate) is reported as 3.6%. For the same compound, the inhibition at 400 µg/mL ([2]; Homo sapiens, 400 μg∙mL^−1, 72 h, read-out: inhibition rate) was 14.5%, the IC50 ([2]; Homo sapiens, 72 h, CCK-8) was over 400 µg/mL and the Death rate ([3]; CA-1, 28056 mg·kg-1 oral) was 25%. For the same compound, the “Death toll (♀/♂)” value ([3]; CA-1, 28056 mg·kg-1 oral) was 3/2, the “Toxic Symptoms (♀/♂) Perianal Uncleanliness” value ([3]; CA-1, 28,056 mg·kg^−1 oral) was 0 and the “Toxic Symptoms (♀/♂) Prone State” value ([3]; CA-1, 28,056 mg·kg^−1 oral) was 2 (0/2). For the same compound, the “Toxic Symptoms (♀/♂) Reduced Activities” value ([3]; CA-1, 28,056 mg·kg^−1 oral) was 8 (2/6), the “Toxic Symptoms (♀/♂) Shortness of Breath” value ([3]; CA-1, 28,056 mg·kg^−1 oral) was 4 (2/2) and the Body weight gain ([3]; CA-1, Female mice) was 2.22 ± 0.62 g. For the same compound, the “body weight, 1st day after the delivery” value ([3]; CA-1, Female mice) was 22.26±0.97, the “body weight, 3rd day after the delivery” value ([3]; CA-1, Female mice) was 24.28±1.18 and the “body weight, 7th day after the delivery” value ([3]; CA-1, Female mice) was 24.88±1.09. The “body weight, 14th day after the delivery” value ([3]; CA-1, Female mice) was 27.10±1.39, the Body weight gain ([3]; CA-1, Male mice) was 2.65 ± 1.01 g and the “body weight, 1st day after the delivery” value ([3]; CA-1, Male mice) was 30.75±2.11. The “body weight, 3rd day after the delivery” value ([3]; CA-1, Male mice) was 33.62±2.35, the “body weight, 7th day after the delivery” value ([3]; CA-1, Male mice) was 35.25±2.53 and the “body weight, 14th day after the delivery” value ([3]; CA-1, Male mice) was 37.90±3.13. For the same compound, the Death rate ([3]; CA-2, 23848 mg·kg-1 oral) was 5%, the “Death toll (♀/♂)” value ([3]; CA-2, 23848 mg·kg-1 oral) was 0/1 and the “Toxic Symptoms (♀/♂) Perianal Uncleanliness” value ([3]; CA-2, 23,848 mg·kg^−1 oral) was 0. The “Toxic Symptoms (♀/♂) Prone State” value ([3]; CA-2, 23,848 mg·kg^−1 oral) was 0, the “Toxic Symptoms (♀/♂) Reduced Activities” value ([3]; CA-2, 23,848 mg·kg^−1 oral) was 1 (0/1) and the “Toxic Symptoms (♀/♂) Shortness of Breath” value ([3]; CA-2, 23,848 mg·kg^−1 oral) was 0. The Body weight gain ([3]; CA-2, Female mice) was 1.88 ± 1.17 g, the “body weight, 1st day after the delivery” value ([3]; CA-2, Female mice) was 21.58±1.21 and the “body weight, 7th day after the delivery” value ([3]; CA-2, Female mice) was 23.59±0.50. The “body weight, 14th day after the delivery” value ([3]; CA-2, Female mice) was 25.47±1.36, the Body weight gain ([3]; CA-2, Male mice) was 3.38 ± 1.23 g and the “body weight, 1st day after the delivery” value ([3]; CA-2, Male mice) was 30.91±0.87. The “body weight, 3rd day after the delivery” value ([3]; CA-2, Male mice) was 33.07±1.24, the “body weight, 7th day after the delivery” value ([3]; CA-2, Male mice) was 33.88±1.71 and the “body weight, 14th day after the delivery” value ([3]; CA-2, Male mice) was 37.26±2.19. The “Death toll (♀/♂)” value ([3]; CA-3, 20272 mg·kg-1 oral) was 0/0, the “Toxic Symptoms (♀/♂) Perianal Uncleanliness” value ([3]; CA-3, 20,272 mg·kg^−1 oral) was 0 and the “Toxic Symptoms (♀/♂) Prone State” value ([3]; CA-3, 20,272 mg·kg^−1 oral) was 0. The “Toxic Symptoms (♀/♂) Reduced Activities” value ([3]; CA-3, 20,272 mg·kg^−1 oral) was 0, the “Toxic Symptoms (♀/♂) Shortness of Breath” value ([3]; CA-3, 20,272 mg·kg^−1 oral) was 0 and the Body weight gain ([3]; CA-3, Female mice) was 2.41 ± 1.51 g. For the same compound, the “body weight, 1st day after the delivery” value ([3]; CA-3, Female mice) was 22.21±0.87, the “body weight, 3rd day after the delivery” value ([3]; CA-3, Female mice) was 23.36±0.66 and the “body weight, 14th day after the delivery” value ([3]; CA-3, Female mice) was 26.62±1.54. For the same compound, the Body weight gain ([3]; CA-3, Male mice) was 1.45 ± 3.11 g, the “body weight, 1st day after the delivery” value ([3]; CA-3, Male mice) was 30.89±1.57 and the “body weight, 3rd day after the delivery” value ([3]; CA-3, Male mice) was 33.88±1.41. For the same compound, the “body weight, 7th day after the delivery” value ([3]; CA-3, Male mice) was 35.33±1.44, the “body weight, 14th day after the delivery” value ([3]; CA-3, Male mice) was 36.78±3.53 and the deaths ([3]; mouse, in vivo) was “no deaths”. For the same compound, the IC50 [4] was 1.11 µM and 1.1 µM and the IC50 [5] was 95.2 µM.

Reference: PMC10816276 (International Journal of Molecular Sciences, 2024)
